Source: PubChem BioAssay (NCI)
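Values below derive from 48-hour exposures of cells grown in 96-well plates, with endpoints linearly interpolated between the two concentrations bracketing the appropriate inhibition level. Abbreviation: GI50, concentration required for 50% inhibition of growth. TGI marks complete inhibition of growth.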

Experiments:
Assay in all cases: NCI anticancer screen, dose series, 48 h
CAKI-1 renal = test system: CAKI-1 renal
HT29 colon = test system: HT29 colon
LOX IMVI melanoma = test system: LOX IMVI melanoma
MCF7 breast = test system: MCF7 breast
PC-3 prostate = test system: PC-3 prostate
SK-MEL-28 melanoma = test system: SK-MEL-28 melanoma
SN12C renal = test system: SN12C renal
SW-620 colon = test system: SW-620 colon
U251 CNS = test system: U251 CNS
K-562 leukemia = test system: K-562 leukemia
RXF 393 renal = test system: RXF 393 renal

Compound	TGI (CAKI-1 renal)	TGI (HT29 colon)	TGI (LOX IMVI melanoma)	TGI (MCF7 breast)	TGI (PC-3 prostate)	TGI (SK-MEL-28 melanoma)	TGI (SN12C renal)	TGI (SW-620 colon)	TGI (U251 CNS)	TGI (K-562 leukemia)	TGI (RXF 393 renal)	GI50 (HT29 colon)	GI50 (K-562 leukemia)	GI50 (LOX IMVI melanoma)	GI50 (MCF7 breast)	GI50 (RXF 393 renal)	GI50 (SK-MEL-28 melanoma)	GI50 (SN12C renal)	GI50 (SW-620 colon)	GI50 (U251 CNS)
CN(CC(=O)O)c1ncc2c(n1)-c1ccccc1SC2	> 100 µM	> 100 µM	> 100 µM	> 100 µM	> 100 µM	> 100 µM	> 100 µM	> 100 µM	> 100 µM											
CCCCS(=O)CCC(N)P(=O)(O)O (stereo unspecified)	> 100 µM	> 100 µM	> 100 µM	> 100 µM	> 100 µM	> 100 µM	> 100 µM	> 100 µM	> 100 µM	> 100 µM										
COc1cccc2c1OC(c1ccc(Cl)cc1)C([N+](=O)[O-])=C2 (stereo unspecified)	10.7 µM	3.21 µM	2.71 µM		5.3 µM	7.19 µM	8.41 µM		5.77 µM	24.3 µM	3.32 µM									
Cc1cc(N)c(C)c2c1[nH]c1ccc(O)cc12	> 100 µM	> 100 µM	> 100 µM			> 100 µM	> 100 µM	> 100 µM	> 100 µM	> 100 µM										
CS(=O)(=O)O[C@H]1CN2C[C@@H](O)[C@@H](O)[C@H]2[C@H]1CO	> 100 µM	> 100 µM	> 100 µM	> 100 µM	> 100 µM	> 100 µM		> 100 µM	> 100 µM	> 100 µM	> 100 µM									
CC(=O)O[C@H]1C[C@H]2[C@@H](OC(C)=O)/C=C3\C[C@](C)(C(=O)[C@H](O)C(=C1C)C2(C)C)[C@@H](O)C[C@@H]3OC(=O)[C@H](O)[C@H](c1ccccc1)N(C)C	> 100 µM		> 100 µM	> 100 µM	> 100 µM	> 100 µM	> 100 µM	> 100 µM	> 100 µM	> 100 µM	> 100 µM									
Cc1cc2c(cc1Cl)SC(NS(=O)(=O)c1ccc(Cl)cc1)=NS2(=O)=O	> 100 µM	> 100 µM	> 100 µM	> 100 µM		> 100 µM	> 100 µM	> 100 µM	> 100 µM	> 100 µM	66.5 µM									
CN(C(=O)C1=CCC2(CC1)OCCO2)c1ccccc1OS(=O)(=O)C(F)(F)F	> 100 µM		> 100 µM	> 100 µM	> 100 µM	> 100 µM	> 100 µM	> 100 µM	> 100 µM	> 100 µM	> 100 µM									
CC(C)(C)[Si](C)(C)OCC1OC(n2ccc(N)nc2=O)C(O[Si](C)(C)C(C)(C)C)C1O[Si](C)(C)C(C)(C)C (stereo unspecified)		3.02 µM	3.23 µM	5.33 µM	3.65 µM		10.2 µM	2.93 µM												
C/C(=N\NC(=S)N1CCCCC1)c1nc2ncccc2[nH]1	> 100 µM	> 100 µM	> 100 µM	14 µM	> 100 µM	37.7 µM	> 100 µM	> 100 µM	> 100 µM	43.7 µM										
COc1ccc(N2C(=O)CC(C3CC(C(C)(C)C)CCC3=O)C2=O)cc1 (stereo unspecified)	> 100 µM	> 100 µM		> 100 µM	> 100 µM	> 100 µM	> 100 µM	> 100 µM	> 100 µM	> 100 µM	> 100 µM									
CCc1cc2c(oc3cc4ccccc4cc32)c(=O)[nH]1		> 10 µM	> 10 µM		> 10 µM		> 10 µM	> 10 µM			> 10 µM									
CN(C)CCCNC(=O)c1cc2[nH]c3c(cnc4ccc([N+](=O)[O-])cc43)c(=O)c2n1C		18.6 µM	27.5 µM	28.9 µM		33.9 µM	35.4 µM	34.5 µM	31.3 µM	33.1 µM	18.7 µM	5.93 µM	15.8 µM	14.4 µM	15.5 µM	4.88 µM	19.7 µM	20.8 µM	17.4 µM	17.5 µM
COC(=O)c1ccc(C(=O)NC(Cc2ccc(Oc3cc(CC(NC(=O)c4ccccc4C(=O)OC)C(=O)OC)ccc3OC)cc2)C(=O)OC)cc1 (stereo unspecified)	> 100 µM	> 100 µM	> 100 µM	> 100 µM	> 100 µM	> 100 µM	> 100 µM	> 100 µM		> 100 µM										
COc1ccc(C2COc3cc(OC(C)=O)c(OC(C)=O)cc3C2)cc1 (stereo unspecified)	51.1 µM	56.1 µM	37.2 µM	62.7 µM		46.9 µM	32.9 µM	46.5 µM	24.3 µM	80 µM	34.1 µM									
CCOC(=O)C1(C#N)C(c2ccccc2)CC(O)(c2ccc(OC)cc2)C(C(=O)c2ccc(OC)cc2)C1c1ccccc1 (stereo unspecified)	> 100 µM	> 100 µM	> 100 µM			> 100 µM	> 100 µM	> 100 µM	> 100 µM	> 100 µM	> 100 µM									
Oc1c(C2=NNC(c3ccc(Cl)cc3Cl)C2)ccc2ccccc12 (stereo unspecified)	> 100 µM	> 100 µM		> 100 µM	> 100 µM	> 100 µM	> 100 µM	> 100 µM	> 100 µM	76.9 µM	> 100 µM									
CC(C)(Br)C(Br)CCC1(C2CO2)CO1 (stereo unspecified)	> 5 µM	> 5 µM		> 5 µM	> 5 µM	> 5 µM	> 5 µM	> 5 µM	> 5 µM	> 5 µM	> 5 µM									
c1nc(OCC2CCCCC2)c2[nH]cnc2n1	> 100 µM	> 100 µM	> 100 µM		> 100 µM	> 100 µM	> 100 µM	> 100 µM	> 100 µM	> 100 µM	> 100 µM									
CC(=O)Nc1ccc(C(=O)NN2C(=O)CSC2c2ccc([N+](=O)[O-])cc2)cc1 (stereo unspecified)		> 100 µM		> 100 µM		> 100 µM	> 100 µM	> 100 µM	> 100 µM	> 100 µM	> 100 µM									
OCC1OC(c2cccc3cc(O)c(O)cc23)CC1O (stereo unspecified)		> 100 µM	> 100 µM	> 100 µM	> 100 µM	> 100 µM	> 100 µM	> 100 µM	> 100 µM	> 100 µM										
